Test results reported in PubChem BioAssay AID330 (DTP/NCI, 2004).
Several values for one entry are separate records, joined by “and”; a condition that tells them apart may be missing. Equal values may be shown once. Toxic doses and inconclusive results are not listed. Rule for the calls: active = survival T/C of 150% or more; inactive = T/C below 125% in these data.

System: P388 leukemia ip, CD2F1 mice, survival T/C
Test: NCI In Vivo Anticancer Drug Screen. Data for tumor model P388 Leukemia (intraperitoneal) in CD2F1 (CDF1) mice
Conditions: endpoint: median survival time, higher = longer survival
How it was run: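 Mice carrying the transplanted tumor received test compound or vehicle. Survival was recorded in each group, and the value is the treated-group measurement divided by that of the vehicle-treated control group.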

[1] = dose: 100.0 mg/kg/injection, schedule: Q04DX003 (ip), vehicle: saline with Tween-80
[2] = dose: 200.0 mg/kg/injection, schedule: Q04DX003 (ip), vehicle: saline with Tween-80
[3] = dose: 400.0 mg/kg/injection, schedule: Q04DX003 (ip), vehicle: saline with Tween-80
[4] = dose: 100.0 mg/kg/injection, schedule: Q04DX002 (ip), vehicle: saline with Tween-80
[5] = dose: 200.0 mg/kg/injection, schedule: Q04DX002 (ip), vehicle: saline with Tween-80
[6] = dose: 400.0 mg/kg/injection, schedule: Q04DX002 (ip), vehicle: saline with Tween-80
[7] = dose: 50.0 mg/kg/injection, schedule: Q01DX009 (ip), vehicle: saline with Tween-80
[8] = dose: 100.0 mg/kg/injection, schedule: Q01DX009 (ip), vehicle: saline with Tween-80
[9] = dose: 200.0 mg/kg/injection, schedule: Q01DX009 (ip), vehicle: saline with Tween-80
[10] = dose: 50.0 mg/kg/injection, schedule: Q01DX005 (ip), vehicle: Klucel (hydroxypropylcellulose) (HPC)
[11] = dose: 100.0 mg/kg/injection, schedule: Q01DX005 (ip), vehicle: Klucel (hydroxypropylcellulose) (HPC)
[12] = dose: 200.0 mg/kg/injection, schedule: Q01DX005 (ip), vehicle: Klucel (hydroxypropylcellulose) (HPC)
[13] = dose: 50.0 mg/kg/injection, schedule: Q01DX005 (ip), vehicle: saline with Tween-80
[14] = dose: 100.0 mg/kg/injection, schedule: Q01DX001 (ip), vehicle: Klucel (hydroxypropylcellulose) (HPC)
[15] = dose: 200.0 mg/kg/injection, schedule: Q01DX001 (ip), vehicle: Klucel (hydroxypropylcellulose) (HPC)
[16] = dose: 100.0 mg/kg/injection, schedule: Q01DX005 (ip), vehicle: saline with Tween-80
[17] = dose: 200.0 mg/kg/injection, schedule: Q01DX005 (ip), vehicle: saline with Tween-80
[18] = dose: 25.0 mg/kg/injection, schedule: Q01DX009 (ip), vehicle: Klucel (hydroxypropylcellulose) (HPC)
[19] = dose: 50.0 mg/kg/injection, schedule: Q01DX009 (ip), vehicle: Klucel (hydroxypropylcellulose) (HPC)
[20] = dose: 100.0 mg/kg/injection, schedule: Q01DX009 (ip), vehicle: Klucel (hydroxypropylcellulose) (HPC)
[21] = dose: 400.0 mg/kg/injection, schedule: Q01DX001 (ip), vehicle: Klucel (hydroxypropylcellulose) (HPC)
[22] = dose: 12.5 mg/kg/injection, schedule: Q01DX009 (ip), vehicle: saline with Tween-80
[23] = dose: 25.0 mg/kg/injection, schedule: Q01DX009 (ip), vehicle: saline with Tween-80

Measured: T/C

Cc1ccc(NC(=O)C(Cl)(Cl)Cl)cc1[N+](=O)[O-]
inactive: [1] 104 % of control | [2] 100 % of control | [3] 100 % of control

CC(C)(C)OC(=O)c1ccc(C(=O)OC(C)(C)C)cc1
inactive: [4] 97 % of control | [5] 96 % of control | [6] 96 % of control

O=C(O)c1ccccc1C(=O)n1cnc2ccccc21
inactive: [7] 87 % of control | [8] 94 % of control | [9] 90 % of control

Nc1cccnc1S(=O)(=O)O
inactive: dose: 50.0 mg/kg/injection, schedule: Q01DX009 (ip), vehicle: saline 94 % of control | dose: 100.0 mg/kg/injection, schedule: Q01DX009 (ip), vehicle: saline 98 % of control | dose: 200.0 mg/kg/injection, schedule: Q01DX009 (ip), vehicle: saline 98 % of control

COC(=O)CCC(=S)N(C)C
inactive: [10] 101 % of control | [11] 101 % of control | [12] 103 % of control

CC1CN(Cc2cc(C(C)(C)c3cc(Cl)c(O)c(CN4CC(C)OC(C)C4)c3)cc(Cl)c2O)CC(C)O1 (stereo not drawn)
inactive: dose: 12.5 mg/kg/injection, schedule: Q01DX005 (ip), vehicle: saline with Tween-80 101 % of control | dose: 25.0 mg/kg/injection, schedule: Q01DX005 (ip), vehicle: saline with Tween-80 101 % of control | [13] 87 % of control and 91 % of control

COc1cc(/C=C2\CCC/C(=C\c3ccc(OCC4CO4)c(OC)c3)C2=O)ccc1OCC1CO1 (stereo not drawn)
inactive: [7] 101 % of control | [8] 95 % of control | [9] 94 % of control

COc1c(C)cc(C)c(CCl)c1-c1c(CCl)c(C)cc(C)c1OC
inactive: [14] 90 % of control | [15] 93 % of control

C=C1C(=O)C23OC2C1CCC(=O)C1(C)CC[C@H](OC(C)=O)C(C)(C)[C@H]1CC3=O (stereo partly drawn)
inactive: dose: 2.5 mg/kg/injection, schedule: Q01DX005 (ip), vehicle: Klucel (hydroxypropylcellulose) (HPC) 111 % of control | dose: 5.0 mg/kg/injection, schedule: Q01DX005 (ip), vehicle: Klucel (hydroxypropylcellulose) (HPC) 107 % of control | dose: 10.0 mg/kg/injection, schedule: Q01DX005 (ip), vehicle: Klucel (hydroxypropylcellulose) (HPC) 107 % of control

CN(C)c1ccc2nc3c(C(=O)O)cc(=O)c(O)c-3oc2c1
inactive: [10] 103 % of control | [11] 108 % of control

CCOC(=O)C1C(=O)N2C(=O)C(NC(C)=O)=C(O)C2C1c1ccc(C)cc1 (stereo not drawn)
inactive: [4] 100 % of control | [5] 100 % of control | [6] 104 % of control

COc1cc(O)c(CC=C(C)C)cc1O
inactive: [10] 105 % of control | [11] 101 % of control

COC1C(c2cc(C(N)=O)n(-c3ccc([N+](=O)[O-])cc3)n2)OC2OC(C)(C)OC21 (stereo not drawn)
inactive: dose: 100.0 mg/kg/injection, schedule: Q01DX001 (ip), vehicle: saline with Tween-80 100 % of control | dose: 200.0 mg/kg/injection, schedule: Q01DX001 (ip), vehicle: saline with Tween-80 96 % of control | dose: 400.0 mg/kg/injection, schedule: Q01DX001 (ip), vehicle: saline with Tween-80 94 % of control

COc1cccc(C2NC(c3cccc(OC)c3)C3CCCC2C3=O)c1 (stereo not drawn)
inactive: dose: 25.0 mg/kg/injection, schedule: Q01DX005 (ip), vehicle: Klucel (hydroxypropylcellulose) (HPC) 103 % of control | [10] 102 % of control | [11] 106 % of control | [12] 102 % of control

CC(=O)OCC(OC(C)=O)C(OC(C)=O)C(OC(C)=O)C(C#N)OC(C)=O (stereo not drawn)
inactive: [8] 91 % of control | [9] 87 % of control | dose: 400.0 mg/kg/injection, schedule: Q01DX009 (ip), vehicle: saline with Tween-80 91 % of control | dose: 600.0 mg/kg/injection, schedule: Q01DX009 (ip), vehicle: saline with Tween-80 87 % of control

FC(F)(Cl)c1nc2nc(Cl)c(Cl)nc2[nH]1
inactive: dose: 50.0 mg/kg/injection, schedule: Q01DX009 (ip), vehicle: other 100 % of control | dose: 50.0 mg/kg/injection, schedule: Q04DX003 (ip), vehicle: other 95 % of control | dose: 100.0 mg/kg/injection, schedule: Q01DX009 (ip), vehicle: other 114 % of control | dose: 100.0 mg/kg/injection, schedule: Q04DX003 (ip), vehicle: other 110 % of control | dose: 200.0 mg/kg/injection, schedule: Q04DX003 (ip), vehicle: other 105 % of control

O=C1CCCCCCC1C1SCCS1 (stereo not drawn)
inactive: [7] 102 % of control | [8] 109 % of control | [9] 114 % of control

OCC1(C2CCN(Cc3ccccc3)CC2)OCCO1
inactive: dose: 25.0 mg/kg/injection, schedule: Q01DX005 (ip), vehicle: saline 101 % of control | dose: 50.0 mg/kg/injection, schedule: Q01DX005 (ip), vehicle: saline 100 % of control | dose: 100.0 mg/kg/injection, schedule: Q01DX005 (ip), vehicle: saline 101 % of control

CCOC(=O)/C=C(/C)SC1=CC(=O)C=CC1=O
inactive: [13] 92 % of control | [16] 92 % of control | [17] 100 % of control

CCOC(=O)C1=C(C)NC(C)=C(C(=O)OCC)C1c1ccc(OC)cc1
inactive: [18] 94 % of control | [19] 91 % of control | [20] 100 % of control | dose: 200.0 mg/kg/injection, schedule: Q01DX009 (ip), vehicle: Klucel (hydroxypropylcellulose) (HPC) 101 % of control

O/N=C/c1c(-c2ccccc2)nc2sccn12
inactive: [14] 94 % of control | [15] 86 % of control | [21] 94 % of control

NC(N)=NC(N)=Nc1ccc2ccc3cccc4ccc1c2c34
inactive: [1] 106 % of control | [2] 111 % of control

COC(=O)c1c2ccccc2cn1C
inactive: [4] 100 % of control | [5] 102 % of control

Oc1cccc(NCNC2Nc3ccccc3N2)c1
inactive: dose: 15.0 mg/kg/injection, schedule: Q01DX005 (ip), vehicle: saline with Tween-80 94 % of control | dose: 30.0 mg/kg/injection, schedule: Q01DX005 (ip), vehicle: saline with Tween-80 95 % of control

Fc1ccc(C(Nc2nncs2)Nc2nncs2)c(F)c1
inactive: dose: 60.0 mg/kg/injection, schedule: Q01DX005 (ip), vehicle: saline with Tween-80 105 % of control | dose: 120.0 mg/kg/injection, schedule: Q01DX005 (ip), vehicle: saline with Tween-80 96 % of control | dose: 240.0 mg/kg/injection, schedule: Q01DX005 (ip), vehicle: saline with Tween-80 107 % of control

O=C1Nc2c(Cl)cc(Cl)cc2/C1=N/N=C/c1ccco1
inactive: [13] 101 % of control | [16] 104 % of control | [17] 104 % of control

C[n+]1nnn(/N=C\c2ccccc2)c1N
inactive: dose: 12.5 mg/kg/injection, schedule: Q01DX009 (ip), vehicle: Klucel (hydroxypropylcellulose) (HPC) 100 % of control | [18] 97 % of control | [19] 104 % of control

O=C1c2c(Cl)c(Cl)c(Cl)c(Cl)c2C(=O)N1O
inactive: dose: 6.25 mg/kg/injection, schedule: Q01DX009 (ip), vehicle: saline with Tween-80 100 % of control | [22] 100 % of control | [23] 104 % of control

N#CCCN(CCCN1CCOCC1)CN1C(=O)c2ccccc2C1=O
inactive: [19] 98 % of control | [20] 91 % of control | dose: 400.0 mg/kg/injection, schedule: Q01DX009 (ip), vehicle: Klucel (hydroxypropylcellulose) (HPC) 99 % of control

CCOP(=S)(N/N=C/c1cccnc1)OCC
inactive: [14] 101 % of control | [15] 101 % of control | [21] 108 % of control

CC1(c2ccc(Cl)cc2)NC(=O)N(CN2CCCCC2)C1=O (stereo not drawn)
inactive: [22] 100 % of control | [23] 100 % of control | [7] 100 % of control | dose: 50.0 mg/kg/injection, schedule: Q04DX003 (ip), vehicle: saline sonified 100 % of control | dose: 100.0 mg/kg/injection, schedule: Q04DX003 (ip), vehicle: saline sonified 107 % of control | dose: 200.0 mg/kg/injection, schedule: Q04DX003 (ip), vehicle: saline sonified 100 % of control

CCOC(=S)c1cc(C(=S)OCC)cc(C(C)(C)C)c1
inactive: [1] 103 % of control | [2] 108 % of control | [3] 113 % of control
